# Experimental data as given in patent publication US10905744B2, “Pharmaceutical formulations for the oral delivery of peptide drugs” (Cyprumed GmbH, priority 2015, dated 2021).
# Legend:
# [1] = GLP-1 peptide formulations with SNAC and trace elements: dissolution in aqua purificata, visual (Example 4); assay type: physicochemical; conditions: liraglutide 1.8 mg/ml, SNAC 20 mg, trace element 2 mg, disodium phosphate dihydrate, 2 ml aqua purificata
# Experimental: Compositions comprising a GLP-1 peptide, a complexing agent (disodium phosphate dihydrate), the absorption enhancer N-(8-[2-hydroxybenzoyl]amino)caprylic acid (SNAC) and various trace elements or metal salts were prepared and dissolved in 2 ml of aqua purificata and examined visually.
# [2] = Compatibility of absorption enhancers with trace elements: dissolution in aqueous medium, visual examination (Example 1); assay type: physicochemical
# Experimental: Solid dry powder mixtures of desmopressin acetate, zinc sulfate or iron(III) chloride, and different absorption enhancers were prepared and dissolved in 2 ml aqua purificata.
# trypsin = biological target: T1, trypsin (Bos taurus, UniProt P00760); assay: Trypsin inhibition, BAPNA substrate, absorbance at 405 nm (Examples 10-12, 20-22, 25, 26, 28, 29, 33); assay type: biochemical
# T1 construct: gene PRSS1
# T1 sequence (P00760 24-246): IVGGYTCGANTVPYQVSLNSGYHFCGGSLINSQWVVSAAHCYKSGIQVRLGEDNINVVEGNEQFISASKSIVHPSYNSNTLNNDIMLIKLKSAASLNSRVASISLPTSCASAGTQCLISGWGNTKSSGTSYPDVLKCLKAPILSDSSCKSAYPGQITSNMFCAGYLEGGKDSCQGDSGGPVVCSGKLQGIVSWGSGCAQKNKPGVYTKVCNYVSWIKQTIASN
# Experimental: 100 mg/ml copper gluconate in 50 mM TRIS pH 7; pH was adjusted to pH 7; stock solution was diluted to the following concentrations: 50 mg/ml, 25 mg/ml, 12.5 mg/ml, 5 mg/ml, 6.25 mg/ml, 3.125 mg/ml, 2.5 mg/ml, 1.25 mg/ml, 0.625 mg/ml, 0.313 mg/ml, 0.156 mg/ml and 0.078 mg/ml
# 0.5 mg/mL Benzoyl-Arginine p-nitroanilide (BAPNA)
# 100 μl 50 mM TRIS pH 7+50 μL Trypsin Stock+50 μL BAPNA Stock
# 100 μl Copper solution (according to the above described dilutions)+50 μL Trypsin Stock+50 μL BAPNA Stock
# Absorption was measured after 15 minutes at 405 nm.
# Values were corrected (subtraction of blank).
# 100 mg/ml Zinc bisglycinate in 50 mM TRIS pH 7; pH was adjusted to pH 7; stock solution was diluted to the following concentrations: 50 mg/ml and 25 mg/ml
# 100 μl Zinc solution (according to the above described dilutions)+50 μL Trypsin Stock+50 μL BAPNA Stock
# 10 mg/ml iron gluconate in 50 mM TRIS pH 7; pH was adjusted to pH 7; stock solution was diluted to the following concentrations: 5 mg/ml, 2.5 mg/ml, 1.25 mg/ml and 0.625 mg/ml
# 100 μl Iron solution (according to the above described dilutions)+50 μL Trypsin Stock+50 μL BAPNA Stock
# Absorption was measured directly at 405 nm.
# Benzoyl-Arginine p-nitroanilide (BAPNA): 0.5 mg/ml in 50 mM TRIS pH 7 (centrifuged and supernatant used as stock solution)
# Trypsin: […] in 50 mM TRIS pH 7
# 1 mg/mL iron gluconate in 10 mM TRIS pH 7 (iron content=12%), 0.12 mg/ml iron
# […] copper lysinate in 10 mM TRIS pH 7 (copper content=3%), 0.12 mg/ml copper
# 100 μl of the respective salt solution+50 μL Trypsin Stock+50 μL BAPNA Stock
# Experiments were carried out at pH 7, 50 mM TRIS.
# 0.025 mg/ml Trypsin, 0.125 mg/mL Benzoyl-Arginine p-nitroanilide (BAPNA.) Lauryl glutamate:
# 0.25 mg/ml; copper content (as copper(II)gluconate): 0.035 mg/ml.
# Adsorption measurement at 405 nm
# 0.025 mg/ml Trypsin, 0.125 mg/mL Benzoyl-Arginine p-nitroanilide (BAPNA). lauryl-glutamate:
# Absorption measurement at 405 nm
# 0.025 mg/ml Trypsin, 0.125 mg/mL Benzoyl-Arginine p-nitroanilide (BAPNA). Capryl-glucoside:
# Copper sulfate stock solution: 1 mg/ml of copper sulfate was dissolved in 50 mM TRIS pH 7. Copper tartrate stock solution: 1 mg/ml of copper tartrate was dispersed in 50 mM TRIS pH 7 and moderately stirred for 5 minutes. The suspension was then centrifuged at 3′000 rpm for 10 minutes, to separate the insoluble salt. The supernatant was used as stock solution for the experiments.
# Zinc orotate stock solution: 1 mg/ml of zinc orotate was dispersed in 50 mM TRIS pH 7 and moderately stirred for 5 minutes. The suspension was then centrifuged at 3′000 rpm for 10 minutes, to separate the insoluble salt. The supernatant was used as stock solution for the experiments.
# 100 μL of the respective salt solution stock+50 μL Trypsin Stock+50 μL BAPNA Stock
# Control: 100 μL of 50 mM TRIS pH 7+50 μL Trypsin Stock+50 μL BAPNA Stock
# Final concentrations of protease and substrate were 0.025 mg/ml Trypsin, 0.125 mg/mL
# 50 μl manganese sulfate+50 μl copper gluconate+50 μL Trypsin Stock+50 μL BAPNA Stock
# Absorption measurement at 405 nm; final pH in all solutions was monitored to be pH 7.
# 3 mg/ml SiO2—suspended in 50 mM TRIS pH 7 and centrifuged; supernatant was used for experiments.
# 50 μl SiO2+50 μl 50 mM TRIS pH 7+50 μL Trypsin Stock+50 μL BAPNA Stock
# 50 μl copper gluconate+50 μl SiO2+50 μL Trypsin Stock+50 μL BAPNA Stock
# 50 μl iron gluconate+50 μl SiO2+50 μL Trypsin Stock+50 μL BAPNA Stock
# 120 μl 50 mM TRIS pH 7+50 μL Trypsin Stock+50 μL BAPNA Stock
# 80 μl copper gluconate+40 μl 50 mM TRIS pH 7+50 μL Trypsin Stock+50 μL BAPNA Stock
# 40 μl copper gluconate+80 μl 50 mM TRIS pH 7+50 μL Trypsin Stock+50 μL BAPNA Stock
# 80 μl iron gluconate+40 μl 50 mM TRIS pH 7+50 μL Trypsin Stock+50 μL BAPNA Stock
# 40 μl iron gluconate+80 μl 50 mM TRIS pH 7+50 μL Trypsin Stock+50 μL BAPNA Stock
# 80 μl iron gluconate+40 μl copper gluconate+50 μL Trypsin Stock+50 μL BAPNA Stock
# chymotrypsin = chymotrypsin (Bos taurus, UniProt P00766); assay: Chymotrypsin inhibition, BTPNA substrate, absorbance at 405 nm (Examples 9, 13-19, 23, 24, 27, 30, 31)
# Experimental: CuSO4.5H2O dilutions in 10 mM TRIS buffer pH 7 to 10 mM, 5 mM, 2.5 mM 1.25 mM Benzoyl-Tyrosine p-nitroanilide (BTPNA): 0.5 mg/mL BTPNA in Acetone
# Study: • (1) 100 μl buffer (10 mM TRIS, pH=7)+50 μl Chymotrypsin Stock+50 μl BTPNA • (2) 80 μl buffer (10 mM TRIS, pH=7)+20 μl CuSO4 stock (10 mM)+50 μl Chymotrypsin Stock+50 μl BTPNA • (3) 80 μl buffer (10 mM TRIS, pH=7)+20 μl CuSO4 dilut. (5 mM)+50 μl Chymotrypsin Stock+50 μl BTPNA • (4) 80 μl buffer (10 mM TRIS, pH=7)+20 μl CuSO4 stock (2.5 mM)+50 μl Chymotrypsin Stock+50 μl BTPNA • (5) 80 μl buffer (10 mM TRIS, pH=7)+20 μl CuSO4 dilut. (1.25 mM)+50 μl Chymotrypsin Stock+50 μl BTPNA
# Final copper concentrations: 1 mM, 0.5 mM, 0.25 mM, 0.125 mM.
# 10 mM CuSO4 and Copper gluconate stock solution were diluted 1:1 with 10 mM TRIS buffer pH 7
# Study: • (1) 100 μl buffer (10 mM TRIS, pH=7)+50 μl Chymotrypsin Stock+50 μl BTPNA • (2) 80 μl buffer (10 mM TRIS, pH=7)+20 μl CuSO4 dil. (5 mM)+50 μl Chymotrypsin Stock+50 μl BTPNA • (3) 80 μl buffer (10 mM TRIS, pH=7)+20 μl Copper gluconate dilut. (5 mM)+50 μl Chymotrypsin Stock+50 μl BTPNA • (4) 100 μl Cu-bisglycinate stock (0.5 mM)+50 μl Chymotrypsin Stock+50 μl BTPNA
# 10 mM CuSO4 stock solution was diluted 1:1 with 10 mM TRIS Puffer pH 7
# Study: • (1) 30 μl buffer (10 mM TRIS, pH=7)+20 μl CuSO4 dil. (5 mM)+100 μl Chymotrypsin Stock: 30 min. incubation, then addition of 50 μl BTPNA • (2) 30 μl buffer (10 mM TRIS, pH=7)+100 μl Chymotrypsin Stock: 30 min. incubation, then addition of 20 μl CuSO4 dil. (5 mM)+50 μl BTPNA
# Final copper concentration: 0.5 mM
# Iron(II)-bisglycinate solution containing 1.86 mM of iron in 10 mM TRIS buffer pH 7 was prepared
# Cu(II)-gluconate solution containing 2.0 mM of copper in 10 mM TRIS buffer pH 7 was prepared
# Study: • (1) 100 μl buffer (10 mM TRIS, pH=7)+50 μl Chymotrypsin Stock+50 μl BTPNA • (2) 100 μl iron(II)-bisglycinate+50 μl Chymotrypsin Stock+50 μl BTPNA • (3) 100 μl copper(II)-gluconate+50 μl Chymotrypsin Stock+50 μl BTPNA
# Values were corrected (subtraction of blank). Inhibition was calculated by setting the absorption value of (1) at each time-point as 100%.
# Iron(II)-bisglycinate solution containing 0.46 mM of iron in 10 mM TRIS buffer pH 7 was prepared
# Cu(II)- bisglycinate solution containing 0.46 mM of copper in 10 mM TRIS buffer pH 7 was prepared
# Study: • (1) 100 μl buffer (10 mM TRIS, pH=7)+50 μl Chymotrypsin Stock+50 μl BTPNA • (2) 100 μl iron(II)-bisglycinate+50 μl Chymotrypsin Stock+50 μl BTPNA • (3) 100 μl copper(II)-bisglycinate+50 μl Chymotrypsin Stock+50 μl BTPNA
# Values were corrected (subtraction of blank). Inhibition (%) was calculated by setting the absorption value of (1) at each time-point as 100% degradation.
# Values were corrected (subtraction of blank). pH was confirmed to be pH 7 after the experiment.
# 0.025 mg/ml Chymotrypsin, 0.05 mg/mL Benzoyl-Tyrosine p-nitroanilide (BTPNA). Lauryl glutamate: 0.25 mg/ml; copper (as copper gluconate): 0.035 mg/ml.
# 0.025 mg/ml Chymotrypsin, 0.05 mg/mL Benzoyl-Tyrosine p-nitroanilide (BTPNA). Lauryl glutamate: 0.25 mg/ml; iron (as iron gluconate): 0.03 mg/ml.
# 100 μl 50 mM TRIS pH 7+50 μL Chymotrypsin Stock+50 μL BTPNA Stock
# 50 μl Beta-cyclodextrin+50 μl 50 mM TRIS pH 7+50 μL Chymotrypsin Stock+50 μL BTPNA Stock
# 50 μl copper gluconate+50 μl 50 mM TRIS pH 7+50 μL Chymotrypsin Stock+50 μL BTPNA Stock
# 50 μl copper gluconate+50 μl Beta-cyclodextrin+50 μL Chymotrypsin Stock+50 μL BTPNA Stock
# 50 μl copper gluconate+50 μl trisodium phosphate+50 μL Chymotrypsin Stock+50 μL BTPNA Stock
# 50 μl iron gluconate+50 μl trisodium phosphate+50 μL Chymotrypsin Stock+50 μL BTPNA Stock
# Experiments were carried out at pH 7 in 50 mM TRIS buffer.
# [3] = desmopressin acetate + FeCl3 5 mg/ml + absorption enhancer 10 mg/ml in 2 ml aqua purificata
# [4] = desmopressin acetate + ZnSO4 5 mg/ml + absorption enhancer 10 mg/ml in 2 ml aqua purificata
# [5] = Example 26, 1 mg/ml stocks (supernatant for copper tartrate and zinc orotate), pH 7, 50 mM TRIS, FIG. 17
# [6] = Example 16, 0 minutes, metal ion 0.015 mg/ml ([…]), 10 mM TRIS pH 7
Molecule,Dissolution in aqua purificata [1],"Dissolution in aqueous medium (2 ml) [2, 3]","Dissolution in aqueous medium (2 ml) [2, 4]",other results
"O=S(=O)([O-])[O-].[Zn+2] [ZnSO4, zinc sulfate]",precipitation,–,–,–
CCCCCCCCCCCCO[C@@H]1O[C@H](CO)[C@@H](O[C@H]2O[C@H](CO)[C@@H](O)[C@H](O)[C@H]2O)[C@H](O)[C@H]1O [n-Dodecyl-b-D-maltoside],–,Clear solution,Clear solution,–
"[Cl][Fe]([Cl])[Cl] [Fe(III)chlorid, iron(III) chloride]",precipitation,–,–,–
Zinc orotate,Clear solution,–,–,trypsin inhibition (trypsin; [5]): show trypsin inhibitory properties in vitro
NCC(=O)[O-].NCC(=O)[O-].[Fe+2] [Iron bisglycinate],Clear brownish solution,–,–,"Inhibition % (chymotrypsin; Example 15, 0 minutes, metal ion Fe 0.06 mg/ml (0.92 mM), Cu 0.065 mg/ml (1.0 mM), 10 mM TRIS pH 7): 0%; Inhibition % (chymotrypsin; Example 15, 15 minutes, metal ion Fe 0.92 mM, Cu 1.0 mM): 69%; Inhibition % (chymotrypsin; Example 15, 30 minutes, metal ion Fe 0.92 mM, Cu 1.0 mM): 62%; Inhibition % (chymotrypsin; Example 15, 45 minutes, metal ion Fe 0.92 mM, Cu 1.0 mM): 56%; Inhibition % (chymotrypsin; Example 15, 60 minutes, metal ion Fe 0.92 mM, Cu 1.0 mM): 52%; Inhibition % (chymotrypsin; [6]): 0%"
C[C@H](CCC(=O)O)[C@H]1CC[C@H]2[C@@H]3[C@H](O)C[C@@H]4C[C@H](O)CC[C@]4(C)[C@H]3C[C@H](O)[C@]12C [Cholic acid],–,Precipitation,Precipitation,–
NCC(=O)[O-].NCC(=O)[O-].[Cu+2] [Copper-bisglycinate],–,–,–,Inhibition % (chymotrypsin; [6]): 0%
NCC(=O)[O-].NCC(=O)[O-].[Zn+2] [zinc bisglycinate],–,–,–,inhibition of trypsin (trypsin; pH 7): inhibits the proteolytic enzyme trypsin in a dose dependent manner
NCCCC[C@H](N)C(=O)O.NCCCC[C@H](N)C(=O)O.[Cu] [copper(II)lysinate],–,–,–,"trypsin inhibition (trypsin; Example 20, solutions 1 mg/mL iron gluconate, 1 mg/mL copper gluconate, 12 mg/mL copper lysinate, FIG. 11): can be inhibited"
CCCCCCCCCC(=O)[O-].[Na+] [Sodium caprate],–,Precipitation,Precipitation,–
O=C(O)CC(O)(CC(=O)O)C(=O)O [Citric acid],–,–,Clear solution,–
Zinc picolinate,Clear solution,–,–,–
O=C(O)CN(CCN(CC(=O)O)CC(=O)O)CC(=O)O [EDTA],–,–,–,"chymotrypsin inhibition (chymotrypsin; Example 18, stocks: copper gluconate 10 mM, EDTA 5 mM, sodium caprylate 4 mg/ml, pH 7, FIG. 9): can inhibit chymotrypsin; effect on chymotrypsin inhibition (chymotrypsin; Example 19, EDTA added to a solution of copper gluconate, Tween 20 and sodium caprylate, FIG. 10): positive effect on chymotrypsin inhibition; chymotrypsin inhibition (chymotrypsin; Example 31, stocks […] copper(II)gluconate, 1.25 mM EDTA, pH 7, 10 mM TRIS, FIG. 22): can be inhibited"
C[C@H](CCC(=O)[O-])[C@H]1CC[C@H]2[C@@H]3[C@H](O)C[C@@H]4C[C@H](O)CC[C@]4(C)[C@H]3C[C@H](O)[C@]12C.[Na+] [Sodium cholate],–,Precipitation,Precipitation,–
CCCCCCCCCCCCOS(=O)(=O)[O-].[Na+] [Sodium dodecyl sulfate],–,Clear solution,Clear solution,–
Zinc carnosine,Clear solution,–,–,–
CCCCCCCC(=O)[O-].[Na+] [Sodium caprylate],–,Precipitation,Precipitation,–
CCCCCCCCCCCC(=O)OC(CC(=O)O)C[N+](C)(C)C.[Cl-] (stereo not drawn) [Lauroyl carnitine HCl],–,Clear solution,Clear solution,–
Copper orotate,Clear solution,–,–,–
lauryl-glutamate,–,–,–,"trypsin inhibition (trypsin; Example 21, lauryl glutamate […], copper […], pH 7, 50 mM TRIS, FIG. 12): can be inhibited; trypsin inhibition (trypsin; Example 22, lauryl-glutamate […], iron 0.03 mg/ml, pH 7, 50 mM TRIS, FIG. 13): can be inhibited"
CCCCCCCCO[C@@H]1O[C@H](CO)[C@@H](O)[C@H](O)[C@H]1O [n-Octyl-b-D-glucopyranoside],–,Clear solution,Clear solution,–
CC(=O)[O-].CC(=O)[O-].[Zn+2] [Zinc acetate],precipitation,–,–,–
O=C([O-])C(O)C(O)C(=O)[O-].[Cu+2] (stereo not drawn) [copper tartrate],–,–,–,trypsin inhibition (trypsin; [5]): show trypsin inhibitory properties in vitro
"[Cl-].[Cl-].[Zn+2] [ZnCl2, zinc chloride]",precipitation,–,–,–
